{"source": "ChEMBL document CHEMBL1201862", "about": "“PubChem BioAssay data set” (2004)", "assay_in_all_cases": "inhibition of tumour cell growth, NCI panel, 48 h", "key": {"[1]": {"tested_on": "786-0"}, "[2]": {"tested_on": "A498"}, "[3]": {"tested_on": "A549"}, "[4]": {"tested_on": "ACHN"}, "[5]": {"tested_on": "BT-549"}, "[6]": {"tested_on": "CAKI-1"}, "[7]": {"tested_on": "CCRF-CEM"}, "[8]": {"tested_on": "COLO 205"}, "[9]": {"tested_on": "DU-145"}, "[10]": {"tested_on": "EKVX"}, "[11]": {"tested_on": "HCC 2998"}, "[12]": {"tested_on": "HCT-116"}, "[13]": {"tested_on": "HL-60"}, "[14]": {"tested_on": "HOP-92"}, "[15]": {"tested_on": "HT-29"}, "[16]": {"tested_on": "Hs-578T"}, "[17]": {"tested_on": "IGROV-1"}, "[18]": {"tested_on": "K562"}, "[19]": {"tested_on": "KM12"}, "[20]": {"tested_on": "LOX IMVI"}, "[21]": {"tested_on": "M14"}, "[22]": {"tested_on": "MCF7"}, "[23]": {"tested_on": "MDA-MB-231"}, "[24]": {"tested_on": "MDA-MB-435"}, "[25]": {"tested_on": "MDA-N"}, "[26]": {"tested_on": "MOLT-4"}, "[27]": {"tested_on": "Malme-3M"}, "[28]": {"tested_on": "NCI-H226"}, "[29]": {"tested_on": "NCI/ADR-RES"}, "[30]": {"tested_on": "OVCAR-3"}, "[31]": {"tested_on": "OVCAR-5"}, "[32]": {"tested_on": "OVCAR-8"}, "[33]": {"tested_on": "PC-3"}, "[34]": {"tested_on": "RXF 393"}, "[35]": {"tested_on": "SF-268"}, "[36]": {"tested_on": "SF-295"}, "[37]": {"tested_on": "SF-539"}, "[38]": {"tested_on": "SK-MEL-28"}, "[39]": {"tested_on": "SK-MEL-2"}, "[40]": {"tested_on": "SK-OV-3"}, "[41]": {"tested_on": "SN12C"}, "[42]": {"tested_on": "SNB-75"}, "[43]": {"tested_on": "SW-620"}, "[44]": {"tested_on": "T47D"}, "[45]": {"tested_on": "TK-10"}, "[46]": {"tested_on": "U-251"}, "[47]": {"tested_on": "UACC-257"}, "[48]": {"tested_on": "UACC-62"}, "[49]": {"tested_on": "UO-31"}, "[50]": {"tested_on": "HCT-15"}, "[51]": {"tested_on": "HOP-62"}, "[52]": {"tested_on": "NCI-H23"}, "[53]": {"tested_on": "NCI-H460"}, "[54]": {"tested_on": "RPMI-8226"}, "[55]": {"tested_on": "SK-MEL-5"}, "[56]": {"tested_on": "SNB-19"}, "[57]": {"tested_on": "SR"}}, "note": "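Values below derive from 48-hour exposures of cells grown in 96-well plates, with endpoints linearly interpolated between the two concentrations bracketing the appropriate inhibition level. GI50 is the concentration that inhibits growth by half.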 Activity calls are given as the source filed them. Rule as the data show it: active = GI50 up to about 1.1 µM and inactive = higher.", "data": [{"compound": "CC12CCC3c4cc(Br)c(O)c(Br)c4CCC3C1CCC2O", "note": "(stereo unspecified)", "values": [{"measurement": "GI50", "setting": "[1]", "value": "18.7 µM (inactive)"}, {"measurement": "GI50", "setting": "[2]", "value": "18.7 µM (inactive)"}, {"measurement": "GI50", "setting": "[3]", "value": "19.5 µM (inactive)"}, {"measurement": "GI50", "setting": "[4]", "value": "22.5 µM (inactive)"}, {"measurement": "GI50", "setting": "[5]", "value": "16 µM (inactive)"}, {"measurement": "GI50", "setting": "[6]", "value": "15.6 µM (inactive)"}, {"measurement": "GI50", "setting": "[7]", "value": "24.3 µM (inactive)"}, {"measurement": "GI50", "setting": "[8]", "value": "25.2 µM (inactive)"}, {"measurement": "GI50", "setting": "[9]", "value": "34.9 µM (inactive)"}, {"measurement": "GI50", "setting": "[10]", "value": "15.2 µM (inactive)"}, {"measurement": "GI50", "setting": "[11]", "value": "12.7 µM (inactive)"}, {"measurement": "GI50", "setting": "[12]", "value": "19.1 µM (inactive)"}, {"measurement": "GI50", "setting": "[13]", "value": "14.8 µM (inactive)"}, {"measurement": "GI50", "setting": "[14]", "value": "> 10 µM (inactive)"}, {"measurement": "GI50", "setting": "[15]", "value": "15.4 µM (inactive)"}, {"measurement": "GI50", "setting": "[16]", "value": "17.9 µM (inactive)"}, {"measurement": "GI50", "setting": "[17]", "value": "15.8 µM (inactive)"}, {"measurement": "GI50", "setting": "[18]", "value": "6.18 µM (inactive)"}, {"measurement": "GI50", "setting": "[19]", "value": "12.9 µM (inactive)"}, {"measurement": "GI50", "setting": "[20]", "value": "18.1 µM (inactive)"}, {"measurement": "GI50", "setting": "[21]", "value": "32.7 µM (inactive)"}, {"measurement": "GI50", "setting": "[22]", "value": "27.2 µM (inactive)"}, {"measurement": "GI50", "setting": "[23]", "value": "13.3 µM (inactive)"}, {"measurement": "GI50", "setting": "[24]", "value": "4.23 µM (inactive)"}, {"measurement": "GI50", "setting": "[25]", "value": "3.98 µM (inactive)"}, {"measurement": "GI50", "setting": "[26]", "value": "17.7 µM (inactive)"}, {"measurement": "GI50", "setting": "[27]", "value": "14.3 µM (inactive)"}, {"measurement": "GI50", "setting": "[28]", "value": "16.7 µM (inactive)"}, {"measurement": "GI50", "setting": "[29]", "value": "18.5 µM (inactive)"}, {"measurement": "GI50", "setting": "[30]", "value": "18.9 µM (inactive)"}, {"measurement": "GI50", "setting": "[31]", "value": "25.7 µM (inactive)"}, {"measurement": "GI50", "setting": "[32]", "value": "14 µM (inactive)"}, {"measurement": "GI50", "setting": "[33]", "value": "29.4 µM (inactive)"}, {"measurement": "GI50", "setting": "[34]", "value": "12.7 µM (inactive)"}, {"measurement": "GI50", "setting": "[35]", "value": "19.8 µM (inactive)"}, {"measurement": "GI50", "setting": "[36]", "value": "16.3 µM (inactive)"}, {"measurement": "GI50", "setting": "[37]", "value": "18.5 µM (inactive)"}, {"measurement": "GI50", "setting": "[38]", "value": "17.9 µM (inactive)"}, {"measurement": "GI50", "setting": "[39]", "value": "19.1 µM (inactive)"}, {"measurement": "GI50", "setting": "[40]", "value": "23.5 µM (inactive)"}, {"measurement": "GI50", "setting": "[41]", "value": "19 µM (inactive)"}, {"measurement": "GI50", "setting": "[42]", "value": "16.3 µM (inactive)"}, {"measurement": "GI50", "setting": "[43]", "value": "14.2 µM (inactive)"}, {"measurement": "GI50", "setting": "[44]", "value": "26.2 µM (inactive)"}, {"measurement": "GI50", "setting": "[45]", "value": "19.8 µM (inactive)"}, {"measurement": "GI50", "setting": "[46]", "value": "15 µM (inactive)"}, {"measurement": "GI50", "setting": "[47]", "value": "17.8 µM (inactive)"}, {"measurement": "GI50", "setting": "[48]", "value": "14 µM (inactive)"}, {"measurement": "GI50", "setting": "[49]", "value": "15.8 µM (inactive)"}]}, {"compound": "O=C1Cc2c([nH]c3c(Br)cccc23)-c2ccccc2N1", "values": [{"measurement": "GI50", "setting": "[1]", "value": "> 100 µM (inactive)"}, {"measurement": "GI50", "setting": "[2]", "value": "> 100 µM (inactive)"}, {"measurement": "GI50", "setting": "[3]", "value": "> 100 µM (inactive)"}, {"measurement": "GI50", "setting": "[4]", "value": "> 100 µM (inactive)"}, {"measurement": "GI50", "setting": "[5]", "value": "> 100 µM (inactive)"}, {"measurement": "GI50", "setting": "[7]", "value": "16.4 µM (inactive)"}, {"measurement": "GI50", "setting": "[8]", "value": "27.8 µM (inactive)"}, {"measurement": "GI50", "setting": "[9]", "value": "> 100 µM (inactive)"}, {"measurement": "GI50", "setting": "[10]", "value": "> 100 µM (inactive)"}, {"measurement": "GI50", "setting": "[11]", "value": "44.9 µM (inactive)"}, {"measurement": "GI50", "setting": "[12]", "value": "> 10 µM (inactive)"}, {"measurement": "GI50", "setting": "[50]", "value": 25.1, "unit": "µM"}, {"measurement": "GI50", "setting": "[13]", "value": "21.5 µM (inactive)"}, {"measurement": "GI50", "setting": "[51]", "value": "37.1 µM (inactive)"}, {"measurement": "GI50", "setting": "[15]", "value": "59.8 µM (inactive)"}, {"measurement": "GI50", "setting": "[16]", "value": "63.5 µM (inactive)"}, {"measurement": "GI50", "setting": "[17]", "value": "> 100 µM (inactive)"}, {"measurement": "GI50", "setting": "[18]", "value": "18.2 µM (inactive)"}, {"measurement": "GI50", "setting": "[19]", "value": "60 µM (inactive)"}, {"measurement": "GI50", "setting": "[20]", "value": "25.8 µM (inactive)"}, {"measurement": "GI50", "setting": "[21]", "value": "58.5 µM (inactive)"}, {"measurement": "GI50", "setting": "[22]", "value": "24.6 µM (inactive)"}, {"measurement": "GI50", "setting": "[23]", "value": "33.9 µM (inactive)"}, {"measurement": "GI50", "setting": "[24]", "value": "> 100 µM (inactive)"}, {"measurement": "GI50", "setting": "[25]", "value": "> 100 µM (inactive)"}, {"measurement": "GI50", "setting": "[26]", "value": "16.4 µM (inactive)"}, {"measurement": "GI50", "setting": "[27]", "value": "> 100 µM (inactive)"}, {"measurement": "GI50", "setting": "[28]", "value": "> 100 µM (inactive)"}, {"measurement": "GI50", "setting": "[52]", "value": "> 100 µM (inactive)"}, {"measurement": "GI50", "setting": "[53]", "value": "45.9 µM (inactive)"}, {"measurement": "GI50", "setting": "[29]", "value": "40.3 µM (inactive)"}, {"measurement": "GI50", "setting": "[30]", "value": "> 100 µM (inactive)"}, {"measurement": "GI50", "setting": "[31]", "value": "> 100 µM (inactive)"}, {"measurement": "GI50", "setting": "[32]", "value": "48.2 µM (inactive)"}, {"measurement": "GI50", "setting": "[33]", "value": "49.8 µM (inactive)"}, {"measurement": "GI50", "setting": "[54]", "value": "32.5 µM (inactive)"}, {"measurement": "GI50", "setting": "[35]", "value": "77.1 µM (inactive)"}, {"measurement": "GI50", "setting": "[36]", "value": "> 100 µM (inactive)"}, {"measurement": "GI50", "setting": "[37]", "value": "49.5 µM (inactive)"}, {"measurement": "GI50", "setting": "[39]", "value": "> 100 µM (inactive)"}, {"measurement": "GI50", "setting": "[55]", "value": "30.1 µM (inactive)"}, {"measurement": "GI50", "setting": "[40]", "value": "37.2 µM (inactive)"}, {"measurement": "GI50", "setting": "[41]", "value": "57.9 µM (inactive)"}, {"measurement": "GI50", "setting": "[56]", "value": "43.6 µM (inactive)"}, {"measurement": "GI50", "setting": "[42]", "value": "33 µM (inactive)"}, {"measurement": "GI50", "setting": "[57]", "value": "19.1 µM (inactive)"}, {"measurement": "GI50", "setting": "[43]", "value": "38.1 µM (inactive)"}, {"measurement": "GI50", "setting": "[44]", "value": "> 100 µM (inactive)"}, {"measurement": "GI50", "setting": "[46]", "value": "57.7 µM (inactive)"}, {"measurement": "GI50", "setting": "[47]", "value": "> 100 µM (inactive)"}, {"measurement": "GI50", "setting": "[48]", "value": "48.8 µM (inactive)"}, {"measurement": "GI50", "setting": "[49]", "value": "37.9 µM (inactive)"}]}]}
